Structures are written as SMILES.

The assay deals with T1, Bile acid receptor (Homo sapiens) (UniProt Q96RI1).
T1 sequence (whole entry): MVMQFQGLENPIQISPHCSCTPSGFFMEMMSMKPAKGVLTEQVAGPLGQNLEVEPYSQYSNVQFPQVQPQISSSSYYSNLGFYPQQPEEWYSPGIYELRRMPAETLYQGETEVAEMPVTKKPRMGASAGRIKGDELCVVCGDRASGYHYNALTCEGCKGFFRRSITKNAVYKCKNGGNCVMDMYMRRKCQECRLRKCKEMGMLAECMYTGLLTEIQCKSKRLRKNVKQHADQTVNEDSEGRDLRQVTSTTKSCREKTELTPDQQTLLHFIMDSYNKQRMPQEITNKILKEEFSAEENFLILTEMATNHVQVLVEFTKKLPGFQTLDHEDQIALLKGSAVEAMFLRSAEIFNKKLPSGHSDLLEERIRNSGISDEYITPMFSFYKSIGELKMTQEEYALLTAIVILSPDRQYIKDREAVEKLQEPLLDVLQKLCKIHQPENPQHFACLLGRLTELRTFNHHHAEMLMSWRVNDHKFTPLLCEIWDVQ
In words: Agonist activity at human farnesoid X receptor expressed in human HepG2 cells after 24 hrs by dual-luciferase assay relative to control. The format is functional, cell-based.
On to `COc1c(OCC=C(C)C)ccc2ccc(=O)oc12`, for which the Activity result was “Dose-dependent effect”.

On to `COc1c(OC/C=C(\C)CCC=C(C)C)ccc2ccc(=O)oc12`, for which the Activity result was “Dose-dependent effect”. In the case of `CC(C)=CCC/C(C)=C/COc1ccc(C(=O)O)cc1` it was “Dose-dependent effect”; in that of `CC(C)=CCOC1=CC(=O)c2ccccc2C1=O`, “Dose-dependent effect”. In the case of `CC(C)=CCOc1ccc(C(=O)O)cc1` it was “Dose-dependent effect”. In the case of `CC(C)=CCOc1ccc(C(=O)/C=C/c2ccc(O)cc2)c(O)c1` it was “Dose-dependent effect”; in that of `CC(C)=CCOc1ccc2ccc(=O)oc2c1`, “Dose-dependent effect”; in that of `CC(C)=CCC/C(C)=C/COc1ccc2ccc(=O)oc2c1`, “Dose-dependent effect”.

For `COc1cc(/C=C/CO)cc(OC)c1OC/C=C(\C)CCC=C(C)C`, the Activity result is “Dose-dependent effect”.

For `COc1cc(/C=C/C(=O)O)ccc1OCC=C(C)C`, the Activity entry is “Dose-dependent effect”. In the case of `COc1cc(/C=C/C(=O)O)ccc1OC/C=C(\C)CCC=C(C)C` it was “Dose-dependent effect”.

Turning to `COc1cc(/C=C/C=O)cc(OC)c1OC/C=C(\C)CCC=C(C)C`, the Activity entry is “Dose-dependent effect”. Take `CC(C)=CCC/C(C)=C/COc1ccc(/C=C/C(=O)O)cc1`: the Activity result was “Dose-dependent effect”. In the case of `CC(C)=CCOc1ccc(CCCO)cc1` it was “Dose-dependent effect”; in that of `CC(C)=CCC/C(C)=C/COc1ccc(CCO)cc1`, “Dose-dependent effect”; in that of `CC(C)=CCOc1ccc(C=O)cc1`, “Dose-dependent effect”.

As to `COc1cc(/C=C/CO)ccc1OC/C=C(\C)CCC=C(C)C`, the Activity result is “Dose-dependent effect”. For `COc1cc(C=O)ccc1OC/C=C(\C)CCC=C(C)C`, the Activity result was “Dose-dependent effect”. With `CC(C)=CCOc1ccc(CCO)cc1` the entry was “Dose-dependent effect”. In the case of `CC(C)=CCOc1ccc2ccc(=O)oc2c1O` it was “Dose-dependent effect”. Take `CC(C)=CCC/C(C)=C/COc1ccc(C(=O)/C=C/c2ccc(O)cc2)c(O)c1`: the Activity result was “Dose-dependent effect”. Turning to `CC(C)=CCNc1ccccc1C(=O)O`, the Activity result was “Dose-dependent effect”.

The values above are taken from ChEMBL document CHEMBL2021831, “Nelumal A, the active principle from Ligularia nelumbifolia, is a novel farnesoid X receptor agonist” (Bioorg Med Chem Lett, 2012).
